{"source": "patent US12611415B2", "about": "“Methods and compounds for treatment of metabolic disease” (Monash University, priority 2019, dated 2026)", "test_system": "C57BL6/J mice fed high fat diet (HFD)", "test": "Celecoxib / Compound I-1 treatment study in HFD fed mice", "type": "in vivo, mouse", "description": "All animal work was conducted per Australian National Health and Medical Research Council (NHMRC) guidelines for the care and use of animals in research. Seven-week-old male Sprague Dawley rats or C57BL6/J mice were randomized and housed in groups of 2-5 in a temperature-controlled room under specific-pathogen free (SPF) or standard animal housing conditions with free access to food and water.\nIn the observational studies, mice or rats were fed semi-purified normal chow diet (control fat diet (CFD), 7% w/w fat and 16% total energy from fat, AIN93G, Specialty Feeds Pty Ltd, Australia) or high fat diet (HFD, 36% w/w fat and 59% total energy from fat, SF03-002, Specialty Feeds Pty Ltd, Australia) for a total duration of 6, 15, 23 or 32 weeks to evaluate changes to mesenteric lymph composition, structure and function over time during the progression of obesity. Mice or rats were fed with the same CFD or HFD for 6-10 weeks prior to collection of mesenteric lymph for in vitro incubation with lymphatic endothelial cells (LECs) and adipocytes, respectively.\nA “prevention study” and a “treatment study” were also conducted. Both the prevention and treatment studies included mice fed the CFD or HFD for 15 or 23 weeks, as described above. In the prevention study, an additional group of mice was fed the HFD supplemented with celecoxib at a dose equivalent to ˜29 mg/kg/day (based on average food intake) for 15 weeks. In the treatment study, animals were fed the HFD for 15 weeks followed by a HFD supplemented with celecoxib (˜29 mg/kg/day) or Compound I-1 (˜9 mg/kg/day celecoxib equivalents) for 7-8 weeks. The celecoxib was purchased from MedChemExpress (NJ, USA), and Compound I-1 was synthesized consistent with the description in WO2016/023082.\nAcross all studies, body mass was measured once per week. Oral glucose tolerance tests (OGTTs) were conducted at 5, 14, 22 and/or 31 weeks after commencing feeding mice the HFD or CFD. To perform OGTTs, mice were routinely handled for 2 weeks prior to minimize the stress caused by handling during the experiment. On the day of the OGTT, mice were fasted for 4 h (7-11 am) but still had free access to water. Glucose (50 mg D-glucose in 200 μL water) was administered via oral gavage and a drop of blood was collected from the tail tip at fixed time points (0, 15, 30, 60, 90 and 120 mins). Blood glucose was measured using a One-touch glucometer (AccuCheck Performa, Roche, Switzerland). Plasma was separated from the remaining blood sample via centrifugation and reserved for measurement of plasma insulin concentrations via ELISA as described above.\nAt the end of all experiments, mice were euthanised via cervical dislocation and rats were euthanised via intracardiac injection of sodium pentobarbitone (100 mg). Organs and tissues, including the lymph nodes and adipose tissue depots, were carefully collected. The mass of adipose tissue depots was weighed to determine adiposity.\nMesenteric adipose tissue samples (for lymphatic capillary and mesenteric lymphatic vessel analysis) and small intestine samples (for villi and lacteal analysis) were collected with fine forceps. Whole mount adipose tissue was cut into ˜3 mm×3 mm×2 mm pieces and whole mount small intestine was cut into 1.5 cm segments. Immediately after collection, the tissue samples were fixed in 4% paraformaldehyde in PBS at 4° C. overnight. Fat associated lymph clusters (FALCs) were identified by intraperitoneal injection of FluoSphere Carboxylate-Modified Nanospheres, 100 nm, yellow-green (505/515, Invitrogen, CA, USA) and collected with fine forceps under a Zeiss Stemi 2000-CS surgical microscope (2.5× magnification) with a fluorescence adaptor (Nightsea, MA, USA). The fluorescent light was filtered through a cyan color light filter (Electron Microscopy Science, PA, USA) to visualize the nanospheres and thus the FALCs. FALCs were cleaned of adipose tissue after collected and placed whole in 4% paraformaldehyde in PBS at 4° C. overnight. […]", "key": {"[1]": {"conditions": "Compound I-1 ~9 mg/kg/day celecoxib equivalents, celecoxib at a 3.2-fold higher dose"}, "[2]": {"conditions": "HFD 15 weeks, then 7 weeks drug in HFD feed"}, "[3]": {"conditions": "HFD 15 weeks, then 7 weeks drug in HFD feed, Compound I-1 ~9 mg/kg/day celecoxib equivalents, celecoxib ~29 mg/kg/day"}}, "note": "Entries after “also recorded” stand apart in the source; their conditions may differ.", "data": [{"compound": "CCCCCCCCCCCCCCCC(=O)OCC(COC(=O)CCCCCCCCCCCCCCC)OC(=O)CCCCCCCCC(=O)Oc1cc(C)cc(C)c1C(C)(C)CC(=O)NS(=O)(=O)c1ccc(-n2nc(C(F)(F)F)cc2-c2ccc(C)cc2)cc1", "note": "[Compound I-1]", "values": [{"measurement": "body weight gain induced by HFD (obesity)", "setting": "[1]", "value": "significantly reduced; also recorded: reverses, more effectively"}, {"measurement": "hyperinsulinemia in the fasted state and after glucose challenge (insulin resistance)", "setting": "[1]", "value": "significantly improved; also recorded: reverses, more effectively"}, {"measurement": "oral glucose tolerance", "setting": "[1]", "value": "significantly improved"}, {"measurement": "SAT and VAT accumulation", "setting": "Compound I-1 ~9 mg/kg/day celecoxib equivalents, compared with celecoxib at a 3.2-fold higher dose", "value": "more significantly reduced"}, {"measurement": "cholesterol levels in mesenteric lymph", "setting": "[2]", "value": "decreased"}, {"measurement": "lymph lipid profile (lipidomic analysis of mesenteric lymph) / lymph composition", "setting": "[2]", "value": "shift in the lymph lipid profile from a HFD-like toward a more CFD-like profile; also recorded: reverses, more effectively"}, {"measurement": "total concentrations of triglyceride, phospholipid and glucose in mesenteric lymph", "setting": "[2]", "value": "trends toward a decrease"}, {"measurement": "total free fatty acid (FFA) in mesenteric lymph", "setting": "[2]", "value": "significantly increased"}, {"measurement": "immune cell numbers in mesenteric lymph nodes reversed to levels similar to CFD mice", "setting": "[3]", "value": "successfully reversed"}, {"measurement": "immune cells in the mesenteric lymph fluid", "setting": "[3]", "value": "reduced"}, {"measurement": "lymph leakage into VAT", "setting": "[3]", "value": "reversed; also recorded: reverses, more effectively"}, {"measurement": "mesenteric lymph levels of PGE2", "setting": "[3]", "value": "reduced"}, {"measurement": "mesenteric lymph levels of VEGF-C", "setting": "[3]", "value": "below the limit of quantification; also recorded: reverses, more effectively"}, {"measurement": "mesenteric lymphatic branching", "setting": "[3]", "value": "reversed; also recorded: reverses, more effectively"}, {"measurement": "mesenteric lymphatic dysfunction, visceral obesity, inflammation, glucose intolerance, and insulin resistance associated with obesity", "setting": "compared with non-lymph-targeted celecoxib", "value": "reverse, more effectively"}]}]}
